Reference: ChEMBL document CHEMBL3817752, “Antimycobacterial activity of new N(1)-[1-[1-aryl-3-[4-(1H-imidazol-1-yl)phenyl]-3-oxo]propyl]-pyridine-2-carboxamidrazone derivatives” (Bioorg Med Chem Lett, 2016)
≈ marks a conversion by molar mass, not a printed value.

The molecules below were run on Mycobacterium tuberculosis variant bovis (assay: Antimycobacterial activity against Mycobacterium bovis NCTC 10772 after 7 days by resazurin microtiter assay). Settings: NCTC 10772, 168 h.
Format: functional

Point of comparison: `N/C(=N/NC(CC(=O)c1ccc(-n2ccnc2)cc1)c1ccc(F)cc1)c1ccccn1` (stereo not given), MIC 18.7 µM (≈ 8.01 µg/mL). Against it:
- N/C(=N/NC(CC(=O)c1ccc(-n2ccnc2)cc1)c1ccc(Cl)cc1Cl)c1ccccn1 (stereo not given) — 2.1-fold lower, 9 µM (≈ 4.31 µg/mL)
- N/C(=N/NC(CC(=O)c1ccc(-n2ccnc2)cc1)c1ccc(Cl)cc1)c1ccccn1 (stereo not given) — within 1.5-fold, 18 µM (≈ 8.01 µg/mL)
- N/C(=N/NC(CC(=O)c1ccc(-n2ccnc2)cc1)c1ccccc1)c1ccccn1 (stereo not given) — 2.1-fold higher, 39 µM (≈ 16 µg/mL)
- N/C(=N/NC(CC(=O)c1ccc(-n2ccnc2)cc1)c1ccccc1[N+](=O)[O-])c1ccccn1 (stereo not given) — within 1.5-fold, 17.6 µM (≈ 8.02 µg/mL)
- N/C(=N/NC(CC(=O)c1ccc(-n2ccnc2)cc1)c1ccccc1Br)c1ccccn1 (stereo not given) — 1.7-fold higher, 32.7 µM (≈ 16 µg/mL)
- N/C(=N/NC(CC(=O)c1ccc(-n2ccnc2)cc1)c1ccccc1F)c1ccccn1 (stereo not given) — the same, 18.7 µM (≈ 8.01 µg/mL)
- NNC(=O)c1ccncc1 [ISONIAZID] — 2.6-fold lower, 7.3 µM (≈ 1 µg/mL)
- N/C(=N/NC(CC(=O)c1ccc(-n2ccnc2)cc1)c1cccc(F)c1)c1ccccn1 (stereo not given) — the same, 18.7 µM (≈ 8.01 µg/mL)
- N/C(=N/NC(CC(=O)c1ccc(-n2ccnc2)cc1)c1cccc([N+](=O)[O-])c1)c1ccccn1 (stereo not given) — within 1.5-fold, 17.6 µM (≈ 8.02 µg/mL)
- N/C(=N/NC(CC(=O)c1ccc(-n2ccnc2)cc1)c1ccccc1Cl)c1ccccn1 (stereo not given) — within 1.5-fold, 18 µM (≈ 8.01 µg/mL)
- N/C(=N/NC(CC(=O)c1ccc(-n2ccnc2)cc1)c1ccc(Br)cc1)c1ccccn1 (stereo not given) — 2.3-fold lower, 8.2 µM (≈ 4.01 µg/mL)
- N/C(=N/NC(CC(=O)c1ccc(-n2ccnc2)cc1)c1cccc(Cl)c1)c1ccccn1 (stereo not given) — within 1.5-fold, 18 µM (≈ 8.01 µg/mL)
- N/C(=N/NC(CC(=O)c1ccc(-n2ccnc2)cc1)c1cccc(Br)c1)c1ccccn1 (stereo not given) — within 1.5-fold, 16.3 µM (≈ 7.98 µg/mL)
- N/C(=N/NC(CC(=O)c1ccc(-n2ccnc2)cc1)c1ccc([N+](=O)[O-])cc1)c1ccccn1 (stereo not given) — 1.9-fold higher, 35.1 µM (≈ 16 µg/mL)
